One compound from PMC10954600, “A novel laccase from Trametes polyzona with high performance in the decolorization of textile dyes” (AMB Express, 2024) can be followed below.

The experiment deals with TP-Lac2. As to conditions: 25 mM tartrate buffer, pH 3.5, 50 °C; 0.05-1.5 mM ABTS.

In general, Km refers to the concentration of substrate that gives half-maximal velocity. In the case of `CCn1c(=NN=c2sc3cc(S(=O)(=O)O)ccc3n2CC)sc2cc(S(=O)(=O)O)ccc21` [ABTS], the Km was found to be 250 ± 40 µM.
